Like-named read-outs stand apart in the source and are kept apart here.
Legend:
[1] = system: SDH-WT cells; assay: Cellular / differential toxicity assay (CellTiter-Glo, 3 days); assay type: cell-based, murine; settings: toxicity, SDH-WT cells, 3 days, CellTiter-Glo, read-out: EC50 (uM) SDH-WT
How it was run: (§1)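 Isogenic SDHB-deficient (HRAS-transformed SDH-KO) and SDH-WT cells grown in DMEM-F12 with 1 mM glutamine and 3% FBS, plated with compound (10-point dilution from 10 uM to 0.0065 uM or lower) for 3 days at 37 °C, 5% CO2. Viability by CellTiter-Glo luminescence; EC50 calculated.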

[2] = system: SDH-KO-HRAS cells (SDHB-deficient); assay: as above; assay type: cell-based, murine; settings: toxicity, SDH-KO cells, 3 days, CellTiter-Glo, read-out: EC50 (uM) SDH-KO-HTAS-C17
How it was run: as §1

Row | SMILES | EC50 ([1]; Mus musculus, 72 h) | EC50 ([2]; Mus musculus, 72 h) | EC50 [1] | EC50 [2]
1 | CCCCCCCNc1ncnc2c1sc1nc3c(cc12)COC(C)(C)C3 [Compound 255] | > 10 µM | > 10 µM |  | 
2 | CCCCN(CC)c1ncnc2c1sc1nc3c(cc12)COC(C)(C)C3 [Compound 256] | 3 to 10 µM | 3 to 10 µM |  | 
3 | CC1(C)Cc2nc3sc4c(NCCO)ncnc4c3cc2CO1 [Compound 257] | > 10 µM | > 10 µM |  | 
4 | CCCCN(CCCC)c1ncnc2c1sc1nc3c(cc12)COC(C)(C)C3 [Compound 258] | > 10 µM | > 10 µM |  | 
5 | CC(C)(C)Nc1ncnc2c1sc1nc3c(cc12)COC(C)(C)C3 [Compound 259] | > 10 µM | > 10 µM |  | 
6 | CC1(C)Cc2nc3sc4c(NCCc5ccccc5)ncnc4c3cc2CO1 [Compound 260] | > 10 µM | > 10 µM |  | 
7 | CC1(C)Cc2nc3sc4c(NC5CCCCC5)ncnc4c3cc2CO1 [Compound 261] | > 10 µM | > 10 µM |  | 
8 | CCCCCNc1nc(C)nc2c1sc1nc3c(cc12)COC(C)(C)C3 [Compound 262] | > 10 µM | > 10 µM |  | 
9 | Cc1nc(N2CCC(C)CC2)c2sc3nc4c(cc3c2n1)COC(C)(C)C4 [Compound 263] | > 10 µM | > 10 µM |  | 
10 | Cc1nc(NC2CCCCC2)c2sc3nc4c(cc3c2n1)COC(C)(C)C4 [Compound 264] | > 10 µM | 3 to 10 µM |  | 
11 | Cc1nc(NC(C)CCc2ccccc2)c2sc3nc4c(cc3c2n1)COC(C)(C)C4 (stereo not drawn) [Compound 265] |  |  | 3 to 10 µM | > 10 µM
12 | Cc1nc(NC(C)Cc2ccccc2)c2sc3nc4c(cc3c2n1)COC(C)(C)C4 (stereo not drawn) [Compound 266] | 3 to 10 µM | > 10 µM |  | 
13 | CC1(C)Cc2nc3sc4c(NCCN5CCOCC5)ncnc4c3cc2CO1 [Compound 267] | > 10 µM | > 10 µM |  | 
14 | Cc1nc(N2CCCC2)c2sc3nc4c(cc3c2n1)COC(C)(C)C4 [Compound 268] | > 10 µM | > 10 µM |  | 
15 | CCCCN(CC)c1nc(C)nc2c1sc1nc3c(cc12)COC(C)(C)C3 [Compound 269] | > 10 µM | > 10 µM |  | 
16 | CC1(C)Cc2nc3sc4c(N(CCO)Cc5ccccc5)ncnc4c3cc2CO1 [Compound 271] | 3 to 10 µM | > 10 µM |  | 
17 | Cc1nc(NC(C)c2ccccc2)c2sc3nc4c(cc3c2n1)COC(C)(C)C4 (stereo not drawn) [Compound 272] | > 10 µM | > 10 µM |  | 
18 | COc1ccc(CCNc2nc(C)nc3c2sc2nc4c(cc23)COC(C)(C)C4)cc1OC [Compound 273] | > 10 µM | 3 to 10 µM |  | 
19 | CC(Nc1ncnc2c1sc1nc3c(cc12)COC(C)(C)C3)c1ccccc1 (stereo not drawn) [Compound 274] | > 10 µM | > 10 µM |  | 
20 | CC1(C)Cc2nc3sc4c(N(CCO)CCO)ncnc4c3cc2CO1 [Compound 275] | > 10 µM | > 10 µM |  | 

Row | SMILES | EC50 ([1]; Mus musculus, 72 h) | EC50 ([2]; Mus musculus, 72 h) | EC50 [1] | EC50 [2]
21 | CC(Cc1ccccc1)Nc1ncnc2c1sc1nc3c(cc12)COC(C)(C)C3 (stereo not drawn) [Compound 276] | 3 to 10 µM | > 10 µM |  | 
22 | CC1(C)Cc2nc3sc4c(NCc5cccnc5)ncnc4c3cc2CO1 [Compound 277] | > 10 µM | > 10 µM |  | 
23 | CN(CCO)c1ncnc2c1sc1nc3c(cc12)COC(C)(C)C3 [Compound 278] | > 10 µM | > 10 µM |  | 
24 | CC1(C)Cc2nc3sc4c(N5CCC(Cc6ccccc6)CC5)ncnc4c3cc2CO1 [Compound 279] | > 10 µM | > 10 µM |  | 
25 | CCN1CCN(c2ncnc3c2sc2nc4c(cc23)COC(C)(C)C4)CC1 [Compound 280] | > 10 µM | > 10 µM |  | 
26 | COCCCNc1ncnc2c1sc1nc3c(cc12)COC(C)(C)C3 [Compound 281] | > 10 µM | 3 to 10 µM |  | 
27 | CC1CCCCN1c1ncnc2c1sc1nc3c(cc12)COC(C)(C)C3 (stereo not drawn) [Compound 282] | > 10 µM | > 10 µM |  | 
28 | COCCNc1ncnc2c1sc1nc3c(cc12)COC(C)(C)C3 [Compound 283] | > 10 µM | > 10 µM |  | 
29 | CC1(C)Cc2nc3sc4c(NCCOCCO)ncnc4c3cc2CO1 [Compound 284] | > 10 µM | > 10 µM |  | 
30 | CC(O)CN(CC(C)O)c1ncnc2c1sc1nc3c(cc12)COC(C)(C)C3 (stereo not drawn) [Compound 285] | > 10 µM | > 10 µM |  | 
31 | CC1(C)Cc2nc3sc4c(N5CCN(C(c6ccccc6)c6ccccc6)CC5)ncnc4c3cc2CO1 [Compound 286] | > 10 µM | > 10 µM |  | 
32 | CCN(CC)CCCNc1ncnc2c1sc1nc3c(cc12)COC(C)(C)C3 [Compound 287] | > 10 µM | > 10 µM |  | 
33 | CC1(C)Cc2nc3sc4c(N5CCN(CCO)CC5)ncnc4c3cc2CO1 [Compound 288] | > 10 µM | > 10 µM |  | 
34 | CCN(CCO)c1ncnc2c1sc1nc3c(cc12)COC(C)(C)C3 [Compound 289] | > 10 µM | 3 to 10 µM |  | 
35 | CC1(C)Cc2nc3sc4c(NCCCN5CCOCC5)ncnc4c3cc2CO1 [Compound 290] | > 10 µM | > 10 µM |  | 
36 | CCC(CO)Nc1ncnc2c1sc1nc3c(cc12)COC(C)(C)C3 (stereo not drawn) [Compound 291] | > 10 µM | > 10 µM |  | 
37 | CN(Cc1ccccc1)c1ncnc2c1sc1nc3c(cc12)COC(C)(C)C3 [Compound 292] | > 10 µM | > 10 µM |  | 
38 | CC1(C)CCc2cc3c(nc2C1)sc1c(CCC2(c4ccccc4)CCCC2)cccc13 [Compound 293] | > 10 µM | > 10 µM |  | 
39 | CCCCNc1ncnc2c1sc1nc3c(cc12)COC(C)(C)C3 [Compound 294] |  |  | > 10 µM | > 10 µM
40 | CC1(C)Cc2nc3sc4c(NN)ncnc4c3cc2CO1 [Compound 295] | > 10 µM | > 10 µM |  | 

Row | SMILES | EC50 ([1]; Mus musculus, 72 h) | EC50 ([2]; Mus musculus, 72 h) | EC50 [1] | EC50 [2]
41 | C=CCNc1ncnc2c1sc1nc3c(cc12)COC(C)(C)C3 [Compound 296] |  |  | > 10 µM | 3 to 10 µM
42 | CCN(CC)c1ncnc2c1sc1nc3c(cc12)COC(C)(C)C3 [Compound 297] | > 10 µM | 3 to 10 µM |  | 
43 | CC1(C)Cc2nc3sc4c(N5CCCC5)ncnc4c3cc2CO1 [Compound 298] | > 10 µM | > 10 µM |  | 
44 | CCC(C)Nc1ncnc2c1sc1nc3c(cc12)COC(C)(C)C3 (stereo not drawn) [Compound 299] | > 10 µM | > 10 µM |  | 
45 | CCCN(CCC)c1ncnc2c1sc1nc3c(cc12)COC(C)(C)C3 [Compound 300] | 3 to 10 µM | 3 to 10 µM |  | 
46 | COc1ccc(CCn2cnc3c(sc4nc5c(cc43)COC(C)(C)C5)c2=O)cc1F [Compound 301] | > 10 µM | > 10 µM |  | 
47 | CCOC(=O)C1CCc2nc3sc4c(NCCc5ccc(OC)c(F)c5)ncnc4c3cc2C1 (stereo not drawn) [Compound 302] | > 10 µM | > 10 µM |  | 
48 | COc1ccc(CCNc2ncnc3c2sc2nc4c(cc23)COCC4)cc1F [Compound 303] | > 10 µM | < 1 µM |  | 
49 | CN1C(=O)CCC1n1cnc2ccc(CCNc3ncnc4c3sc3nc5c(cc34)COC(C)(C)C5)cc21 (stereo not drawn) [Compound 304] | 3 to 10 µM | < 1 µM |  | 
50 | COCCOCCOCCOCc1c2c(nc3sc4c(NCCc5ccc6[nH]cnc6c5)ncnc4c13)CC(C)(C)OC2 [Compound 305] | > 10 µM | < 1 µM |  | 
51 | CC1(C)Cc2nc3sc4c(NCCc5ccc6[nH]cnc6c5)ncnc4c3c(CO)c2CO1 [Compound 306] | > 10 µM | > 10 µM |  | 
52 | c1ccc(-c2nc(NCCc3ccc4[nH]cnc4c3)c3sc4ncccc4c3n2)cc1 [Compound 307, N-(2-(1H-Benzo[d]imidazol-5-yl)ethyl)-2-phenylpyrido[3′,2′:4,5]thieno[3,2-d]pyrimidin-4-amine] | 3 to 10 µM | > 10 µM |  | 
53 | Cc1nc(NCCc2ccc3[nH]cnc3c2)c2sc3ncccc3c2n1 [Compound 309, N-(2-(1H-Benzo[d]imidazol-5-yl)ethyl)-2-methylpyrido[3′,2′:4,5]thieno[3,2-d]pyrimidin-4-amine] | > 10 µM | 3 to 10 µM |  | 
54 | c1cnc2sc3c(NCCc4ccc5[nH]cnc5c4)nc(C4CCCCC4)nc3c2c1 [Compound 310, N-(2-(1H-Benzo[d]imidazol-5-yl)ethyl)-2-cyclohexylpyrido[3′,2′:4,5]thieno[3,2-d]pyrimidin-4-amine] | > 10 µM | > 10 µM |  | 
55 | CC(C)c1nc(NCCc2ccc3[nH]cnc3c2)c2sc3nc4c(cc3c2n1)COC(C)(C)C4 [Compound 311] | > 10 µM | 1 to 3 µM |  | 
56 | CC(C)c1nc(NCCc2ccc3[nH]cnc3c2)c2sc3ncccc3c2n1 [Compound 312, N-(2-(1H-Benzo[d]imidazol-5-yl)ethyl)-2-isopropylpyrido[3′,2′:4,5]thieno[3,2-d]pyrimidin-4-amine] | 3 to 10 µM | 3 to 10 µM |  | 
57 | Cc1nc(NCCc2ccc3[nH]cnc3c2)c2sc3nc4c(cc3c2n1)COC(C)(C)C4 [Compound 313] | 3 to 10 µM | 3 to 10 µM |  | 
58 | CCCc1nc(NCCc2ccc3[nH]cnc3c2)c2sc3nc4c(cc3c2n1)COC(C)(C)C4 [Compound 314] | 3 to 10 µM | 3 to 10 µM |  | 
59 | CC1(C)Cc2nc3sc4c(NCCc5ccc6[nH]cnc6c5)nc(-c5ccccc5)nc4c3cc2CO1 [Compound 315] | 3 to 10 µM | 1 to 3 µM |  | 
60 | c1cnc2sc3c(NCCc4ccc5[nH]cnc5c4)nc(C4CCCC4)nc3c2c1 [Compound 316, N-(2-(1H-Benzo[d]imidazol-5-yl)ethyl)-2-cyclopentylpyrido[3′,2′:4,5]thieno[3,2-d]pyrimidin-4-amine] | 3 to 10 µM | 3 to 10 µM |  | 

Source: patent US20230084927A1, “GLUCOSE UPTAKE INHIBITORS AND USES THEREOF” (METABOMED LTD., priority 2019, published 2023)
